{
  "source": "patent US20250302791A1",
  "about": "“METHOD FOR TREATING AND/OR PREVENTING EPILEPSY AND REDUCING SIDE EFFECT OF ANTI-EPILEPTIC DRUG BY USING CYNARIN” (FU JEN CATHOLIC UNIVERSITY, priority 2024, published 2025)",
  "key": {"[1]": {"test_system": "KA-induced epilepsy model in rats", "assay": "kainic acid (KA)-induced seizure behavior in rats, Racine scale scoring (seizure score and latency)", "type": "in vivo, Sprague-Dawley rats", "from_the_text": "Experimental animals are as follows. Male Sprague-Dawley rats (weight 200-250 g) purchased from BioLASCO in Taipei were housed in the Animal Center of Fu Jen Catholic University and maintained in a 12-h light/dark cycle with food and water available ad libitum. Rats were allowed to acclimate to laboratory conditions for at least 3 days before the start of the experiment.\nThe experimental design of the present invention is as follows. Cynarin pretreatment reduces epileptic behavior in animals induced by kainic acid (KA). […] Behavioral scoring was based on the Racine scale (1972), see FIG. 1.\nExperimental grouping is as follows. […]\nThe experimental protocol for Racine scale behavioral scoring is as follows. The rats' epileptic seizure activity was continuously monitored for 3 hours, and epileptic behavior was scored according to the 1972 Racine scale. […]\nStatistical analysis is as follows. […] Data are expressed as mean±standard error (SEM). Statistical significance was determined by one-way analysis of variation (ANOVA), combined with Bonferroni's post hoc test, and a p-value less than 0.05 was used as the criterion for significant differences.\nThe rats were pretreated either with normal saline (control), or CYN (0.5-25 mg/kg/day, p.o.), or CBZ (50 or 100 mg/kg/day, p.o.) or CYN 5 mg/kg/day+CBZ 50 mg/kg/day (p.o.) for 7 days before KA injection (15 mg/kg, i.p.). […] Data are expressed as mean±SEM. […]"}, "[2]": {"test_system": "hippocampal CA1/CA3 nerve cells of KA-treated rats", "assay": "NeuN staining of hippocampal CA1/CA3 nerve cells in KA-treated rats", "type": "in vivo", "conditions": "Cynarin 10 mg/kg p.o. once daily for 7 days before KA 15 mg/kg i.p.; NeuN staining 72 h after KA", "experimental": "In this example, rats were divided into four groups: a control group, a KA-only (15 mg/kg) treatment group, a Cynarin (CYN) (10 mg/kg) plus KA (15 mg/kg) treatment group, and a triple treatment group consisting of Cynarin (CYN) (5 mg/kg), Carbamazepine (CBZ) (50 mg/kg), and KA (15 mg/kg). During the experiment, except for the control group, rats in each group were administered Cynarin orally once daily for seven days. Then, on the eighth day, all experimental groups, except the control group, were further treated by intraperitoneal injection of KA (15 mg/kg).\nFIGS. 3A and 3B show the effect of Cynarin (CYN) pretreatment on kainic acid (KA)-induced nerve cell death in the hippocampus of rats. (3A) Representative images of Neuronal nuclei (NeuN) staining at 72 h after KA i.p. injection. (3B) Semiquantitative analysis of NeuN-positive cells in the CA1 and CA3 regions. Data are mean±SEM (n=5 per group). ***, p<0.001 vs. control group. #, p<0.001 vs. KA group."}},
  "data": [
    {"smiles": "O=C(/C=C/c1ccc(O)c(O)c1)O[C@@H]1C[C@@](OC(=O)/C=C/c2ccc(O)c(O)c2)(C(=O)O)C[C@@H](O)[C@@H]1O", "note": "[CYN, Cynarin]", "values": [
      {"measurement": "effect on KA-induced epilepsy (seizure score and latency)", "setting": "[1]; CYN 0.5 mg/kg/day p.o. for 7 days before KA 15 mg/kg i.p., rats observed 3 h", "value": "did not affect the epilepsy induced by KA"},
      {"measurement": "inhibitory effect on epileptic seizure behavior", "setting": "[1]; CYN 10 mg/kg/day p.o. for 7 days before KA 15 mg/kg i.p., compared with CYN 5 and 25 mg/kg, equivalent to CBZ 100 mg/kg", "value": "strongest inhibitory effect on epileptic seizure behavior in animals"},
      {"measurement": "KA-induced reduction of the number of hippocampal CA1/CA3 nerve cells (NeuN-positive cells)", "setting": "[2]", "value": "can also be reduced"}
    ]}
  ]
}
